From US20240299387A1, “HETEROCYCLIC EGFR INHIBITORS FOR USE IN THE TREATMENT OF CANCER” (Blueprint Medicines Corporation, priority 2021, published 2024)

Legend:
EGFR (L858R T790M C797S) = molecular target: T1, EGFR (L858R T790M C797S) (Homo sapiens, UniProt P00533, C797S/L858R/T790M); assay: Biochemical EGFR inhibition assay (Caliper mobility shift), EGFR LRTMCS mutant; conditions: LRTMCS (PH) IC50 (nM) @ 1 mM ATP (Num)
T1 construct: purchased SignalChem E10-122VG
In short: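 Each enzyme was allowed to phosphorylate 10–20% of its peptide at 25° C. before EDTA (35 mM) quench. Separated substrate and product peaks were measured by mobility shift, giving apparent IC50 values.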

[1] = molecular target: T2, EGFR L858R T790M in NCI-H1975 cell line (Homo sapiens, UniProt P00533, L858R/T790M); assay: NCI-H1975 pEGFR AlphaLISA assay; type: cell-based; conditions: NCI-H1975 cells (EGFR L858R T790M), p-EGFR (Tyr1068), 4-5 hours incubation; read-out: Ext pEGFR H1975 GMean IC50 (nM) Protocol: @Pharmaron AlphaLISA (Num)
T2 construct: host or cells: NCI-H1975
In short: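 Phospho-EGFR measured by AlphaLISA after overnight donor-bead incubation; IC50 from percent pEGFR inhibition versus log concentration.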

T1 sequence (P00533 25-1210 T790M/C797S/L858R): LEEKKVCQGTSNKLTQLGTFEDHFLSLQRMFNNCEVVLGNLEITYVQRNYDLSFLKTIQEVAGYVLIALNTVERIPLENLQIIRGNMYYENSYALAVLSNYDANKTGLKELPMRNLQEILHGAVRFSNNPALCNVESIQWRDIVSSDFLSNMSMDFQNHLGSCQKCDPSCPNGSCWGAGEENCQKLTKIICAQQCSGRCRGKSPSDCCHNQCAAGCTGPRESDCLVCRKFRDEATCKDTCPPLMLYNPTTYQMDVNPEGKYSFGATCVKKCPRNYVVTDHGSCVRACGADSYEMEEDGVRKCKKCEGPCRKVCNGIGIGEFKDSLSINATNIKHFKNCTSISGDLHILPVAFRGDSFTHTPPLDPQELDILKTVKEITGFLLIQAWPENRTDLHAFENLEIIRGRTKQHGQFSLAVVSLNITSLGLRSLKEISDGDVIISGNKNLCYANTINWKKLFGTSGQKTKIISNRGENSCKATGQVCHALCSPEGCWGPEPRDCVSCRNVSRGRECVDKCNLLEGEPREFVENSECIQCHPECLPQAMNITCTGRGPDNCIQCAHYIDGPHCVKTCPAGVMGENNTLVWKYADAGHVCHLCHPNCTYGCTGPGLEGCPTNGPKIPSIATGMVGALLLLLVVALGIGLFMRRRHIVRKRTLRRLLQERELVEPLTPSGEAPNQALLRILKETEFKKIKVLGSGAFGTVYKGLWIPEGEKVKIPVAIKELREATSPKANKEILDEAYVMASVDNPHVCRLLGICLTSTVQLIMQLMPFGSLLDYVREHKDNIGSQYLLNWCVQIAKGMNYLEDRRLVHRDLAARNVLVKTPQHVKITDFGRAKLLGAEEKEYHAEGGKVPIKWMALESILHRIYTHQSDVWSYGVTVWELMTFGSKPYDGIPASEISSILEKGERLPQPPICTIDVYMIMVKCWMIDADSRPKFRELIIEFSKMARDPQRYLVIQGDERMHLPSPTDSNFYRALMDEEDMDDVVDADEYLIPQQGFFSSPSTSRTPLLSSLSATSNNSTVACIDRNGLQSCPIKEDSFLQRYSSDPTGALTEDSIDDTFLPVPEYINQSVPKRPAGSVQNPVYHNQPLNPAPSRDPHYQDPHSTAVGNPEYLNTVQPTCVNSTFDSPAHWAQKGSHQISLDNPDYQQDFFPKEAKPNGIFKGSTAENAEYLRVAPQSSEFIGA
T2 sequence (P00533 25-1210 T790M/L858R): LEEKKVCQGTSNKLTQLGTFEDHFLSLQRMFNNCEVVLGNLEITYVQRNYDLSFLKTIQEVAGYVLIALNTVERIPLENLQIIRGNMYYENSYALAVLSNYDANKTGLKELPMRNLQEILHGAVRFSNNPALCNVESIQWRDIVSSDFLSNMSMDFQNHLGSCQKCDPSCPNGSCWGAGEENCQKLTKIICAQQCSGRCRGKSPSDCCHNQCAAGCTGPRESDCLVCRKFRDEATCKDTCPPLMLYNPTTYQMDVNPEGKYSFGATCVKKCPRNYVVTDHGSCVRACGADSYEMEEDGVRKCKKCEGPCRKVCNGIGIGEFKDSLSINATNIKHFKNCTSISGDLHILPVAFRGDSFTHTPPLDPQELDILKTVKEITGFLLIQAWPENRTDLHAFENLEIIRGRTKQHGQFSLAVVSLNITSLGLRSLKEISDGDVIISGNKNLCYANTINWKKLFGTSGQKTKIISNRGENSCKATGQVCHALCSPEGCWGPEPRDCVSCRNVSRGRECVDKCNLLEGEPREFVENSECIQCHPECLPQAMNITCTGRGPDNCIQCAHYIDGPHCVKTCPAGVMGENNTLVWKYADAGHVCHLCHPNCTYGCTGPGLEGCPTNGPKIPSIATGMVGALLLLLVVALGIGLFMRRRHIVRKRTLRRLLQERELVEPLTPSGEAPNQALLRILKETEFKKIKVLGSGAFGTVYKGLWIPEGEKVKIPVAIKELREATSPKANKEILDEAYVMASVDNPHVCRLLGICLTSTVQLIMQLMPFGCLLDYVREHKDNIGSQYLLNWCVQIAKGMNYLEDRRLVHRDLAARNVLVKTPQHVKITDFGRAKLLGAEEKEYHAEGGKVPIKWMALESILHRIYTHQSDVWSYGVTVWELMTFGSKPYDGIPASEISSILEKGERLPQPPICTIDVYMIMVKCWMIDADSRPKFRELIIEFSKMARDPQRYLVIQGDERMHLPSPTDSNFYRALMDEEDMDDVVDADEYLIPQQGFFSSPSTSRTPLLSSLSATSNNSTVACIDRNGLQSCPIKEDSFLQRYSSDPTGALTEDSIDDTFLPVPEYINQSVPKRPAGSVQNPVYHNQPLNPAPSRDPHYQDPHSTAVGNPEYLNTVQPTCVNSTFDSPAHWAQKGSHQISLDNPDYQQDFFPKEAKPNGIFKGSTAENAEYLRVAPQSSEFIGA

IC50 (EGFR (L858R T790M C797S)) | IC50 [1] | Structure (SMILES)
15 to 20 nM | > 50 nM | CC(C)c1cnc(C(=O)N[C@@H]2CN(C)C[C@H]2F)c2cnc(Nc3ccnc(N4CC[C@@H](O)[C@@](C)(F)C4)n3)cc12 (single isomer, unassigned) [Example 89]
30 to 100 nM | > 50 nM | CNc1ncc(C(C)C)c2cc(Nc3ccnc(N4CC[C@@H](O)[C@@H](F)C4)n3)ncc12 [Example 92, (3S,4R)-3-fluoro-1-(4-((5-isopropyl-8-(methylamino)-2,7-naphthyridin-3-yl)amino)pyrimidin-2-yl)piperidin-4-ol]
< 15 nM | 10 to 20 nM | CC(C)c1cnc(C(=O)N[C@@H]2CN(C)C[C@H]2F)c2cnc(Nc3ccnc(N4CC[C@@H](O)[C@@](C)(F)C4)n3)cc12 (single isomer, unassigned) [Example 90]
20 to 30 nM | > 50 nM | CC(C)NC(=O)c1ncc(C(C)C)c2cc(Nc3ccnc(N4CC[C@@H](O)[C@@](C)(F)C4)n3)ncc12 [Example 69, 6-((2-((3S,4R)-3-fluoro-4-hydroxy-3-methylpiperidin-1-yl)pyrimidin-4-yl)amino)-N,4-diisopropyl-2,7-naphthyridine-1-carboxamide]
< 15 nM | 30 to 50 nM | CC(C)c1cnc(C(=O)NCCN(C)C)c2cnc(Nc3ccnc(N4CC[C@@H](O)[C@@](C)(F)C4)n3)cc12 [Example 77, N-(2-(dimethylamino)ethyl)-6-((2-((3S,4R)-3-fluoro-4-hydroxy-3-methylpiperidin-1-yl)pyrimidin-4-yl)amino)-4-isopropyl-2,7-naphthyridine-1-carboxamide]
< 15 nM | 20 to 30 nM | CC(C)c1cnc(C(=O)NC2CN(CCF)C2)c2cnc(Nc3ccnc(N4CC[C@@H](O)[C@@](C)(F)C4)n3)cc12 [Example 80, 6-((2-((3S,4R)-3-fluoro-4-hydroxy-3-methylpiperidin-1-yl)pyrimidin-4-yl)amino)-N-(1-(2-fluoroethyl)azetidin-3-yl)-4-isopropyl-2,7-naphthyridine-1-carboxamide]
20 to 30 nM | > 50 nM | COCCNC(=O)c1ncc(C(C)C)c2cc(Nc3ccnc(N4CC[C@@H](O)[C@@](C)(F)C4)n3)ncc12 [Example 66, 6-((2-((3S,4R)-3-fluoro-4-hydroxy-3-methylpiperidin-1-yl)pyrimidin-4-yl)amino)-4-isopropyl-N-(2-methoxyethyl)-2,7-naphthyridine-1-carboxamide]
< 15 nM | 30 to 50 nM | CC(C)c1cnc(C(=O)NC2CS(=O)(=O)C2)c2cnc(Nc3ccnc(N4CC[C@@H](O)[C@@](C)(F)C4)n3)cc12 [Example 76, N-(1,1-dioxidothietan-3-yl)-6-((2-((3S,4R)-3-fluoro-4-hydroxy-3-methylpiperidin-1-yl)pyrimidin-4-yl)amino)-4-isopropyl-2,7-naphthyridine-1-carboxamide]

The remaining lines, values behind:

Structure (SMILES) | IC50 (EGFR (L858R T790M C797S)) | IC50 [1]
CC(C)c1ccc(OCCn2cnnc2)c2cnc(Nc3ccnc(N4CC[C@H]5COC[C@H]54)n3)cc12 (single isomer, unassigned) [Example 50] | 20 to 30 nM | > 50 nM
CC(C)c1ccc(OCCc2ccnn2C)c2cnc(Nc3ccnc(N4CC[C@](C)(O)[C@H](F)C4)n3)cc12 [Example 34, (3R,4S)-3-fluoro-1-(4-((5-isopropyl-8-(2-(1-methyl-1H-pyrazol-5-yl)ethoxy)isoquinolin-3-yl)amino)pyrimidin-2-yl)-4-methylpiperidin-4-ol] | 15 to 20 nM | > 50 nM
CC(C)c1cnc(C(=O)NCCF)c2cnc(Nc3ccnc(N4CC[C@@H](O)[C@@](C)(F)C4)n3)cc12 [Example 62, 6-((2-((3S,4R)-3-fluoro-4-hydroxy-3-methylpiperidin-1-yl)pyrimidin-4-yl)amino)-N-(2-fluoroethyl)-4-isopropyl-2,7-naphthyridine-1-carboxamide] | < 15 nM | > 50 nM
CC(C)c1ccc(OCCN2CCOCC2)c2cnc(Nc3ccnc(N4CC[C@](C)(O)[C@H](F)C4)n3)cc12 [Example 31, (3R,4S)-3-fluoro-1-(4-((5-isopropyl-8-(2-morpholinoethoxy)isoquinolin-3-yl)amino)pyrimidin-2-yl)-4-methylpiperidin-4-ol] | < 15 nM | > 50 nM
[2H]C([2H])([2H])O[C@H]1CCN(c2nccc(Nc3cc4c(C(C)C)ccc(OCCn5ccnc5)c4cn3)n2)C[C@H]1F [Example 48, 8-(2-(1H-imidazol-1-yl)ethoxy)-N-(2-((3R,4S)-3-fluoro-4-(methoxy-d3)piperidin-1-yl)pyrimidin-4-yl)-5-isopropylisoquinolin-3-amine] | 15 to 20 nM | > 50 nM
CO[C@@H]1CCN(c2nccc(Nc3cc4c(C(C)C)cnc(NCCN(C)C)c4cn3)n2)C[C@@H]1F [Example 3, N^1-(2-(dimethylamino)ethyl)-N^6-(2-((3S,4R)-3-fluoro-4-methoxypiperidin-1-yl)pyrimidin-4-yl)-4-isopropyl-2,7-naphthyridine-1,6-diamine] | 15 to 20 nM | > 50 nM
Cc1nncn1CCOc1ccc(C(C)C)c2cc(Nc3ccnc(N4CC[C@](C)(O)[C@H](F)C4)n3)ncc12 [Example 30, (3R,4S)-3-fluoro-1-(4-((5-isopropyl-8-(2-(3-methyl-4H-1,2,4-triazol-4-yl)ethoxy)isoquinolin-3-yl)amino)pyrimidin-2-yl)-4-methylpiperidin-4-ol] | < 15 nM | > 50 nM
CC(C)c1cnc(C(=O)NC2CN(C)C2)c2cnc(Nc3ccnc(N4CC[C@@H](O)[C@@](C)(F)C4)n3)cc12 [Example 59, 6-((2-((3S,4R)-3-fluoro-4-hydroxy-3-methylpiperidin-1-yl)pyrimidin-4-yl)amino)-4-isopropyl-N-(1-methylazetidin-3-yl)-2,7-naphthyridine-1-carboxamide] | < 15 nM | 30 to 50 nM
CC(C)c1cnc(C(=O)N[C@H]2CC2(F)F)c2cnc(Nc3ccnc(N4CC[C@@H](O)[C@@](C)(F)C4)n3)cc12 (single isomer, unassigned) [Example 63, N—((S)-2,2-difluorocyclopropyl)-6-((2-((3S,4R)-3-fluoro-4-hydroxy-3-methylpiperidin-1-yl)pyrimidin-4-yl)amino)-4-isopropyl-2,7-naphthyridine-1-carboxamide or N—((R)-2,2-difluorocyclopropyl)-6-((2-((3S,4R)-3-fluoro-4-hydroxy-3-methylpiperidin-1-yl)pyrimidin-4-yl)amino)-4-isopropyl-2,7-naphthyridine-1-carboxamide] | 15 to 20 nM | > 50 nM
Cc1noc(C)c1CCOc1ccc(C(C)C)c2cc(Nc3ccnc(N4CC[C@@H](OCCO)[C@@H](F)C4)n3)ncc12 [Example 43, 2-(((3S,4R)-1-(4-((8-(2-(3,5-dimethylisoxazol-4-yl)ethoxy)-5-isopropylisoquinolin-3-yl)amino)pyrimidin-2-yl)-3-fluoropiperidin-4-yl)oxy)ethan-1-ol] | 15 to 20 nM | > 50 nM
CC(C)c1ccc(OC[C@H]2CCC(=O)N2C)c2cnc(Nc3ccnc(N4CCC(C)(O)CC4)n3)cc12 (single isomer, unassigned) [Example 19, (R)-5-(((3-((2-(4-hydroxy-4-methylpiperidin-1-yl)pyrimidin-4-yl)amino)-5-isopropylisoquinolin-8-yl)oxy)methyl)-1-methylpyrrolidin-2-one or (S)-5-(((3-((2-(4-hydroxy-4-methylpiperidin-1-yl)pyrimidin-4-yl)amino)-5-isopropylisoquinolin-8-yl)oxy)methyl)-1-methylpyrrolidin-2-one] | < 15 nM | 10 to 20 nM
